Key:
[1] = test system: AR transcriptional activity (MMTV reporter); test: MMTV reporter assay; type: cell-based; conditions: Table 3 grade HIGH/MED/LOW, grades not defined
[2] = test system: AR-null PCa cells (DU145, PC3); test: MTT / CellTiter GLO cell viability, AR-null prostate cancer cells; conditions: Table 3 grade HIGH/MED/LOW, grades not defined
Description: (§1) The results are means of quadruplicate expts±s.d. Top panel: CellTiter GLO luminescent bioassay (arbitrary units on vertical axis). Bottom panel: classical MTT assay ([blue/yellow]=[viable/non-viable]).
(§2) Experiments were performed in quadruplicate; results are means+/−s.d.
AR null PC3 cells were exposed to the indicated compounds for 6 days; cell viability was measured by MTT assay. Results were normalized to that of vehicle control. Experiments were performed in quadruplicate; results are means+/−s.d.
For each compound and concentration in the figure, the bars represent relative cell viability of 22Rv1, LAPC4, and DU145, from left to right.
For each compound and concentration in the figure, the bars represent relative cell viability of CWR22 and PC3, from left to right.

[3] = test system: AR positive PCa cells (LNCaP, LNCaP-AR, CWR22, 22Rv1, LAPC4); test: MTT / CellTiter GLO cell viability, AR positive prostate cancer cells; conditions: for MTT AR-Pos: Table 3 grade HIGH/MED/LOW, grades not defined
Description: as §1, §2
Results were normalized to that of vehicle control. Experiments were performed in quadruplicate; results are means+/−s.d.
Next, the effects of the compounds on growth of prostate cancer cell lines in vitro were evaluated.

[4] = test system: androgen response element (ARE); test: ARE reporter assay (tandem copies of the androgen response element); type: cell-based; conditions: for ARE: Table 3 grade HIGH/MED/LOW, grades not defined
Description: FIG. 11A. Effects of JN series compounds in reporter assays for androgen response element. Experiments were performed in triplicate and results are means+/−s.d.

[5] = test system: glucocorticoid response element (GRE) / glucocorticoid receptor; test: GRE reporter assay; type: cell-based; conditions: Table 3 grade HIGH/MED/LOW, grades not defined
Description: FIG. 11B. Effects of JN series compounds in reporter assays for glucocorticoid response element. Experiments were performed in triplicate and results are means+/−s.d.

Row | Structure (SMILES) | MMTV [1] | MTT AR-Pos [3] | also measured
1 | CC(C)CN(C/C(=C\c1ccc(Cl)cc1)C(=O)c1ccccc1)CC(C)C [JN035] | HIGH | – | –
2 | CC(C)N(C/C(=C\c1ccc(Cl)cc1)C(=O)c1ccccc1)C(C)C [JN036] | HIGH | MED/HIGH | MTT AR-Neg [2]: LOW/MED
3 | C=C(CN(C)Cc1ccccc1)C(=O)/C(=C/c1ccc(Br)cc1)c1ccccc1.Cl [JN021] | LOW | LOW | MTT AR-Neg [2]: MED
4 | O=C(/C(=C/c1ccc(Cl)cc1)CN1CCOCC1)c1ccccc1 [JN029] | HIGH | – | ARE [4]: HIGH
5 | CN(CCC(=O)/C(=C\c1ccc(Cl)cc1)c1ccccc1)Cc1ccccc1 [JN001, (Z)-5-(Benzyl(methyl)amino)-1-(4-chlorophenyl)-2-phenylpent-1-en-3-one] | LOW | – | –
6 | C=C(CN(C)Cc1ccccc1)C(=O)/C(=C\c1ccc(Br)cc1)c1ccccc1.Cl [JN020] | LOW | LOW | –
7 | C=CC(O)/C(=C\c1ccc(F)cc1)c1ccccc1 (centres unmarked) [JN011] | MED | – | –
8 | C=C(CN1CCCC1)C(=O)/C(=C/c1ccc(Cl)cc1)c1ccccc1.Cl [JN078] | LOW | – | –
9 | C=C(CN1CCNCC1)C(=O)/C(=C/c1ccc(Cl)cc1)c1ccccc1.Cl [JN079] | LOW | – | –
10 | C=C(C)C(=O)NC(=O)/C(=C/c1cccs1)c1ccccc1 [JN128] | – | – | growth of AR expressing prostate cancer cells ([3]; result in words): selective growth inhibitory effects
11 | C=C(CN(C)Cc1ccccc1)C(=O)/C(=C/c1ccc(Cl)cc1)c1ccccc1Cl.Cl [JN076] | HIGH | HIGH | MTT AR-Neg [2]: MED
12 | CN(C/C(=C\c1ccc(Cl)cc1Cl)C(=O)c1ccccc1)Cc1ccccc1.Cl [JN045] | HIGH | – | –
13 | C=C(CN(C)Cc1ccccc1)C(=O)/C(=C/c1ccc(Cl)cc1F)c1ccccc1.Cl [JN083] | HIGH | MED | ARE [4]: LOW; MTT AR-Neg [2]: MED
14 | C=C(CN(C)Cc1ccccc1)C(=O)/C(=C\c1ccc(OC)cc1)c1ccccc1.Cl [JN056] | LOW | – | –
15 | Cc1ccccc1/C=C(\CN(C)Cc1ccccc1)C(=O)c1ccccc1 [JN049] | HIGH | – | –
16 | C=C(CN(C)Cc1ccccc1)C(=O)/C(=C\c1ccc(F)cc1)c1ccccc1.Cl [JN055] | MED | – | ARE [4]: MED; GRE [5]: HIGH
17 | O=C(/C(=C/c1ccc(Cl)cc1)CN1CCCCC1)c1ccccc1 [JN037] | MED | – | –
18 | C=C(CN(C)Cc1ccccc1)C(=O)/C(=C/c1ccc(Cl)c(Cl)c1)c1ccccc1.Cl [JN057] | MED | MED | MTT AR-Neg [2]: MED; GRE [5]: HIGH
19 | CN(C/C(=C\c1ccccc1Br)C(=O)c1ccccc1)Cc1ccccc1.Cl [JN041] | HIGH | – | –
20 | C=C(CN(C)Cc1ccccc1)C(=O)/C(=C\c1ccc(Cl)c(Cl)c1)c1ccccc1.Cl [JN058] | LOW | – | –
21 | C=CC(O)/C(=C\c1ccc(OC)cc1)c1ccccc1 (centres unmarked) [JN014] | MED | – | –
22 | C=C(C)C(=O)/C(=C/c1ccc(Cl)cc1)c1ccccc1 [JN032] | HIGH | HIGH | MTT AR-Neg [2]: LOW

Row | Structure (SMILES) | MMTV [1] | MTT AR-Pos [3] | also measured
23 | CN(C/C(=C\c1ccccc1Cl)C(=O)c1ccccc1)Cc1ccccc1.Cl [JN046] | HIGH | – | –
24 | C=C(CN(C)C)C(=O)/C(=C\c1ccc(Cl)cc1)c1ccccc1.Cl [JN023] | LOW | LOW | MTT AR-Neg [2]: LOW
25 | CN(CCC(=O)/C(=C\c1ccc(Cl)cc1)c1ccccc1)Cc1ccccc1.Cl [JN002, (Z)-5-(Benzyl(methyl)amino)-1-(4-chlorophenyl)-2-phenylpent-1-en-3-one hydrochloride] | LOW | – | –
26 | C=C(CN(C)Cc1ccccc1)C(=O)/C(=C/c1cccc(F)c1)c1ccccc1.Cl [JN069] | MED | – | –
27 | C=C(CN(C)Cc1ccccc1)C(=O)/C(=C/c1ccc(C)cc1)c1ccccc1.Cl [JN066] | LOW | – | –
28 | C=C(C)C(=O)/C(=C\c1ccc(Cl)cc1)c1ccccc1 [JN025] | HIGH | LOW | ARE [4]: HIGH; MTT AR-Neg [2]: MED
29 | C=C(C)C(O)/C(=C\c1ccc(Cl)cc1)c1ccccc1 (centres unmarked) [JN034] | MED | MED | MTT AR-Neg [2]: LOW
30 | C=C(CN(C)Cc1ccccc1)C(=O)/C(=C\c1ccccc1)c1ccccc1.Cl [JN063] | MED | – | –
31 | C=C(CN(C)Cc1ccccc1)C(=O)/C(=C/c1ccc(Cl)cc1)c1ccc(Cl)cc1.Cl [JN074] | HIGH | HIGH | MTT AR-Neg [2]: HIGH
32 | C=C(CN(C)Cc1ccccc1)C(=O)/C(=C/c1cc(Cl)cc(Cl)c1)c1ccccc1.Cl [JN068] | LOW | – | –
33 | C=C(CN(C)Cc1ccccc1)C(=O)/C(=C/c1ccc(Cl)cc1)c1cccc(Cl)c1.Cl [JN075] | MED | HIGH | MTT AR-Neg [2]: HIGH
34 | O=C(/C(=C/c1ccc(Cl)cc1)CN1CCCC1)c1ccccc1 [JN028] | HIGH | – | ARE [4]: HIGH
35 | CN1CCN(CCC(=O)/C(=C\c2ccc(Cl)cc2)c2ccccc2)CC1.Cl [JN009] | LOW | – | –
36 | C=C(CN(C)Cc1ccccc1)C(=O)/C(=C\c1ccc(C)cc1)c1ccccc1.Cl [JN067] | LOW | – | –
37 | C=C(CN(C)Cc1ccccc1)C(=O)/C(=C\c1cccc(C(F)(F)F)c1)c1ccccc1.Cl [JN072] | LOW | – | –
38 | Cl.O=C(CCN1CCCC1)/C(=C\c1ccc(Cl)cc1)c1ccccc1 [JN006] | LOW | – | –
39 | C=C(CN(C)Cc1ccccc1)C(=O)/C(=C\c1ccc(Cl)cc1)c1ccc(N=[N+]=[N-])cc1.Cl [JN081] | MED | – | –
40 | C=CC(O)/C(=C\c1ccc(C)cc1)c1ccccc1 (centres unmarked) [JN012] | LOW | – | –
41 | C=C(CN(C)Cc1ccccc1)C(=O)/C(=C/c1ccc(Cl)c(F)c1)c1ccccc1.Cl [JN082] | LOW | LOW | ARE [4]: LOW; MTT AR-Neg [2]: LOW
42 | C=C(C)C(O)/C(=C/c1ccc(Cl)cc1)c1ccccc1 (centres unmarked) [JN033] | MED | LOW | MTT AR-Neg [2]: LOW
43 | C/C(=C\c1ccc(Cl)cc1)C(=O)c1ccccc1 [JN026, (E)-3-(4-Chlorophenyl)-2-methyl-1-phenylprop-2-en-1-one] | LOW | – | ARE [4]: LOW
44 | CN(C/C(=C\c1cccc(Br)c1)C(=O)c1ccccc1)Cc1ccccc1 [JN040] | HIGH | – | –

Row | Structure (SMILES) | MMTV [1] | MTT AR-Pos [3] | also measured
45 | C=CC(O)/C(=C/c1ccc(Cl)cc1)c1ccccc1 (centres unmarked) [JN005, (E)-1-(4-Chlorophenyl)-2-phenylpenta-1,4-dien-3-ol] | MED | – | –
46 | CN(C/C(=C\c1ccc(Cl)c(Cl)c1)C(=O)c1ccccc1)Cc1ccccc1 [JN031] | LOW | – | ARE [4]: LOW
47 | C=C(CN(C)Cc1ccccc1)C(=O)/C(=C/c1ccccc1)c1ccccc1.Cl [JN062] | LOW | HIGH | MTT AR-Neg [2]: HIGH
48 | C=CC(O)/C(=C\c1ccc(Br)cc1)c1ccccc1 (centres unmarked) [JN010] | LOW | – | –
49 | C=C(CN(C)Cc1ccccc1)C(=O)/C(=C/c1ccc(Cl)cc1)c1ccc(N=[N+]=[N-])cc1.Cl [JN080] | HIGH | LOW | MTT AR-Neg [2]: LOW
50 | CN(C/C(=C\c1ccccc1)C(=O)c1ccccc1)Cc1ccccc1 [JN047] | HIGH | – | –
51 | COc1ccc(/C=C(\C(=O)CCN(C)C)c2ccccc2)cc1.Cl [JN016] | HIGH | – | –
52 | CN1CCN(C/C(=C\c2ccc(Cl)cc2)C(=O)c2ccccc2)CC1 [JN038] | HIGH | HIGH | MTT AR-Neg [2]: MED
53 | C=CC(O)/C(=C/c1ccc(C)cc1)c1ccccc1 (centres unmarked) [JN013] | MED | – | –
54 | CN(C)CCC(=O)/C(=C\c1ccc(Cl)cc1)c1ccccc1.Cl [JN007] | MED | – | –
55 | C=C(CN(C)Cc1ccccc1)C(=O)/C(=C\c1ccc(C(F)(F)F)cc1)c1ccccc1.Cl [JN065] | HIGH | MED | MTT AR-Neg [2]: LOW
56 | C=C(CN(C)Cc1ccccc1)C(=O)C(=Cc1ccco1)c1ccccc1.Cl [JN061] | LOW | – | –
57 | C=C(CN(C)Cc1ccccc1)C(=O)/C(=C\c1cccc(Br)c1)c1ccccc1.Cl [JN070] | MED | – | –
58 | C=C(CN(C)Cc1ccccc1)C(=O)/C(=C\c1ccc(Cl)cc1)c1ccccc1.Cl [JN019] | – | LOW | –
59 | CN(C/C(=C\c1ccc(F)cc1)C(=O)c1ccccc1)Cc1ccccc1 [JN030] | MED | – | ARE [4]: MED
60 | C=C(CN1CCCCC1)C(=O)/C(=C/c1ccc(Cl)cc1)c1ccccc1.Cl [JN077] | HIGH | LOW | MTT AR-Neg [2]: LOW
61 | O=C(CC1CO1)/C(=C/c1ccc(Cl)cc1)c1ccccc1 (centres unmarked) [JN097, (E)-4-(4-Chlorophenyl)-1-(oxiran-2-yl)-3-phenylbut-3-en-2-one] | – | – | reporter activity driven by the ARE ([4]; result in words): inhibited reporter activity; growth inhibitory / suppressive effects as compared to JN018 ([3]; result in words): enhanced growth inhibitory effects
62 | C=C(CN(C)Cc1ccccc1)C(=O)/C(=C/c1ccc(F)cc1)c1ccccc1.Cl [JN054] | MED | LOW | –
63 | C=CC(=O)/C(=C\c1ccc(Cl)cc1)c1ccccc1 [JN004, (Z)-1-(4-Chlorophenyl)-2-phenylpenta-1,4-dien-3-one] | LOW | – | –
64 | C=C(CN(C)Cc1ccccc1)C(=O)/C(=C/c1cccc(C(F)(F)F)c1)c1ccccc1.Cl [JN073] | LOW | – | –
65 | CN(C/C(=C\c1cccc(Cl)c1Cl)C(=O)c1ccccc1)Cc1ccccc1.Cl [JN042] | HIGH | – | –
66 | C=C(CN(C)Cc1ccccc1)C(=O)/C(=C/c1cccc(Br)c1)c1ccccc1.Cl [JN071] | LOW | – | –

From US11261152B2, “Inhibitors of the N-terminal domain of the androgen receptor” (The Regents of the University of California, priority 2017, dated 2022)
